Data as given in patent publication US8343475B2, “Small cationic antimicrobial peptides” (priority 2006, dated 2013).
In brackets after ≈: the same amount, converted by molar mass. Residues, ends and D or L forms follow the SMILES beside them.

Columns and labels:
[1] = test system: Pseudomonas aeruginosa PAO1 strain H103; type: cell-based; details: for antimicrobial activity against P. aeruginosa PAO1 (in words): laboratory strain P. aeruginosa PAO1
How it was run: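 Modified broth microdilution MIC in Mueller Hinton medium, peptides diluted in 0.01% acetic acid/0.2% BSA, polypropylene plates. Inoculum 2-7×10^5 CFU/ml, overnight at 37 °C; MIC is the lowest concentration with no visible growth.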

[2] = test system: multidrug resistant Pseudomonas maltophilia ATCC13637; type: cell-based
Description: (§1) Minimal inhibitory concentration (MIC) determination. The MIC of the peptides were measured using a modified broth microdilution method in Mueller Hinton (MH) medium (Wu M, Hancock R E W. 1999. Interaction of the cyclic antimicrobial cationic peptide bactenecin with the outer and cytoplasmic membrane. J Biol Chem 274, 29-35). Briefly, the peptides were dissolved and stored in glass vials. The assay was performed in sterile 96-well polypropylene microtitre plates were used. Serial dilutions of the peptides to be assayed were performed in 0.01% acetic acid (Fisher) containing 0.2% bovine serum albumin (Boehringer Mannheim GmbH) at 10× the desired final concentration. Ten microlitres of the 10× peptides were added to each well of a 96-well polypropylene plate containing 90 μl of MH media per well. Bacteria were added to the plate from an overnight culture at 2-7×10^5 colony forming units/ml and incubated over night at 37° C. The MIC was taken as the concentration at which no growth was observed.
(§2) The selected peptides were synthesized and assayed against several major antibiotic-resistant pathogens. Initially, the peptides were screened against the laboratory strain of P. aeruginosa PAO1 to compare the results with the training data. […] The antibacterial activity in the form of minimal inhibitory concentration (MIC) of the other studied peptides was assessed in greater depth (Table 9) against many highly antibiotic resistanct pathogens.

[3] = test system: ESBL E. coli clinical strain 64771; type: cell-based; details: ESBL clinical strain 64771
Description: as §1, §2

[4] = test system: ESBL Klebsiella pneumonia clinical strain 63575; type: cell-based
Description: as §1, §2

[5] = test system: multidrug resistant Brazilian clinical isolates of P. aeruginosa; type: cell-based, Pseudomonas aeruginosa
Description: as §1
(§3) All peptides derived from the 1st, 2nd, and 3rd quartiles were further evaluated for their antibacterial activities against several highly antibitoic resistant pathogens (Table 3). These included clinical isolates of MRSA, ESBL E. cloacae, and multidrug resistant Pseudomonas strains including Brazilian clinical isolates of P. aeruginosa that are resistant to meropenem, ceftazidime, piperacillin/tazobactam, ciprofloxacin, cefepime and polymyxin B, and the Liverpool Epidemic Strains. […] Such results characterize the developed peptides as excellent antibiotic candidates, providing new means for treating most dangerous and severe forms of human infections.

[6] = test system: Liverpool Epidemic Strains; type: cell-based, Pseudomonas aeruginosa
Description: as §1, §3

[7] = test system: clinical isolates of MRSA; type: cell-based, Staphylococcus aureus
Description: as §1, §3

[8] = test system: CXCL1 (Gro-α) release by human PBMC; experiment: Chemokine induction in PBMC (capture ELISA); type: cell-based; details: background (196) subtracted
How it was run: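 Human PBMC from healthy donors' heparinised blood (Ficoll), 7.5×10^5 cells treated with 20 or 100 μg/ml peptide for 24 h at 37° C, 5% CO2. Cell-free supernatants assayed for CXCL1 by capture ELISA.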

ESBL E. cloacae = type: cell-based, Enterobacter cloacae
Description: as §1, §3

[9] = test system: MCP-1 release by human PBMC; experiment: Chemokine induction in PBMC (capture ELISA); type: cell-based; details: background (204) subtracted
How it was run: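 Heparinized blood from healthy volunteers; Ficoll-isolated human PBMC (7.5×10^5) treated with peptides at 20 or 100 μg/ml for 24 hours at 37° C, 5% CO2. Cell-free supernatants assayed for MCP-1 by capture ELISA.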

[10] = test system: Staphylococcus aureus ATCC25923; type: cell-based; details: ATCC25923
How it was run: (§4)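 First, peptides were serially diluted at ten times final strength in 0.01% acetic acid with 0.2% BSA. These were then added to Mueller Hinton medium and inoculated with overnight-grown organisms at 2-7×10^5 CFU/ml. After overnight incubation at 37° C, the MIC was scored as the concentration without growth.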

[11] = test system: Enterococcus faecalis ATCC29212; type: cell-based; details: ATCC29212
How it was run: as §4

[12] = test system: MCP-3 release by human PBMC; experiment: Chemokine induction in PBMC (capture ELISA); type: cell-based; details: background (6) subtracted
How it was run: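 Human PBMC from healthy donors (Ficoll-isolated), 7.5×10^5 cells at 0.75–1×10^6 cells/ml, treated with peptides at 20 or 100 μg/ml for 24 h at 37° C, 5% CO2. MCP-3 in cell-free supernatants measured by capture ELISA.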

CC[C@H](C)[C@H](NC(=O)[C@H](CCCCN)NC(=O)[C@H](CC(C)C)NC(=O)[C@@H](NC(=O)[C@@H](N)C(C)C)C(C)C)C(=O)N[C@H](C(=O)N[C@@H](CCCNC(=N)N)C(=O)N[C@@H](CCCNC(=N)N)C(=O)N[C@@H](Cc1ccccc1)C(N)=O)C(C)C [HHC148, VVLKIVRRF] (H-VVLKIVRRF-NH2; N-terminus assumed)
antimicrobial activity against P. aeruginosa PAO1 (in words) [1]: did not return any generally active substances | MIC [2]: 60 µM (≈ 67.7 µg/mL) | MIC [3]: 241 µM (≈ 272 µg/mL) | MIC [4]: >241 µM | MIC [5]: >241 µM | MIC [6]: 241 µM (≈ 272 µg/mL) | MIC [7]: 241 µM (≈ 272 µg/mL) | Chemokine induction Gro-α ([8]; 20 μg/ml peptide): 55 pg/mL | Chemokine induction Gro-α ([8]; 100 μg/ml peptide): 60 pg/mL | MIC (ESBL E. cloacae): 241 µM (≈ 272 µg/mL) | Chemokine induction MCP-1 ([9]; 20 μg/ml peptide): 25 pg/mL | Chemokine induction MCP-1 ([9]; 100 μg/ml peptide): 210 pg/mL | MIC [10]: 241 µM (≈ 272 µg/mL) | MIC [11]: 241 µM (≈ 272 µg/mL) | Chemokine induction MCP-3 ([12]; 20 μg/ml peptide): 1 pg/mL | Chemokine induction MCP-3 ([12]; 100 μg/ml peptide): 3 pg/mL

CC[C@H](C)[C@H](NC(=O)[C@H](Cc1c[nH]c2ccccc12)NC(=O)[C@H](Cc1c[nH]c2ccccc12)NC(=O)[C@H](CCCCN)NC(=O)[C@H](CC(C)C)NC(=O)[C@H](CCCNC(=N)N)NC(=O)[C@H](CCCCN)NC(=O)[C@@H](N)CCCNC(=N)N)C(=O)N[C@@H](Cc1ccc(O)cc1)C(N)=O [HHC66, RKRLKWWIY] (H-RKRLKWWIY-NH2; N-terminus assumed)
MIC against P. aeruginosa PAO1 [1]: 4 to 12 µM | MIC [2]: 3 µM (≈ 4.04 µg/mL) | MIC [3]: 6 µM (≈ 8.09 µg/mL) | MIC [4]: 50 µM (≈ 67.4 µg/mL) | MIC [5]: 50 µM (≈ 67.4 µg/mL) | MIC [6]: 6 µM (≈ 8.09 µg/mL) | MIC [7]: 6 µM (≈ 8.09 µg/mL) | Chemokine induction Gro-α ([8]; 20 μg/ml peptide): -12 pg/mL | Chemokine induction Gro-α ([8]; 100 μg/ml peptide): -23 pg/mL | MIC (ESBL E. cloacae): 13 µM (≈ 17.5 µg/mL) | Chemokine induction MCP-1 ([9]; 20 μg/ml peptide): 351 pg/mL | Chemokine induction MCP-1 ([9]; 100 μg/ml peptide): 355 pg/mL | MIC [10]: 6 µM (≈ 8.09 µg/mL) | MIC [11]: 50 µM (≈ 67.4 µg/mL) | Chemokine induction MCP-3 ([12]; 20 μg/ml peptide): 0 pg/mL | Chemokine induction MCP-3 ([12]; 100 μg/ml peptide): 0 pg/mL

CC[C@H](C)[C@H](NC(=O)[C@H](C)N)C(=O)N[C@@H](CCCNC(=N)N)C(=O)N[C@@H](CCCNC(=N)N)C(=O)N[C@@H](Cc1c[nH]c2ccccc12)C(=O)N[C@@H](CCCNC(=N)N)C(=O)N[C@H](C(=O)N[C@@H](CCCNC(=N)N)C(=O)N[C@@H](CCCCN)C(N)=O)[C@@H](C)CC [HHC142, AIRRWRIRK] (H-AIRRWRIRK-NH2; N-terminus assumed)
antimicrobial activity against P. aeruginosa PAO1 (in words) [1]: did not return any generally active substances | MIC [2]: 108 µM (≈ 135 µg/mL) | MIC [3]: 108 µM (≈ 135 µg/mL) | MIC [4]: >217 µM | MIC [5]: >217 µM | MIC [6]: 217 µM (≈ 272 µg/mL) | MIC [7]: 54 µM (≈ 67.7 µg/mL) | Chemokine induction Gro-α ([8]; 20 μg/ml peptide): 59 pg/mL | Chemokine induction Gro-α ([8]; 100 μg/ml peptide): 22 pg/mL | MIC (ESBL E. cloacae): 108 µM (≈ 135 µg/mL) | Chemokine induction MCP-1 ([9]; 20 μg/ml peptide): 67 pg/mL | Chemokine induction MCP-1 ([9]; 100 μg/ml peptide): -16 pg/mL | MIC [10]: 54 µM (≈ 67.7 µg/mL) | MIC [11]: >217 µM | Chemokine induction MCP-3 ([12]; 20 μg/ml peptide): 1 pg/mL | Chemokine induction MCP-3 ([12]; 100 μg/ml peptide): 0 pg/mL

CC[C@H](C)[C@H](NC(=O)[C@H](CCCCN)NC(=O)[C@H](Cc1c[nH]c2ccccc12)NC(=O)[C@@H](N)CCCCN)C(=O)N[C@@H](Cc1ccccc1)C(=O)N[C@@H](CCCNC(=N)N)C(=O)N[C@@H](CCCNC(=N)N)C(=O)N[C@@H](Cc1c[nH]c2ccccc12)C(=O)N[C@@H](Cc1c[nH]c2ccccc12)C(N)=O [HHC71, KWKIFRRWW] (H-KWKIFRRWW-NH2; N-terminus assumed)
MIC against P. aeruginosa PAO1 [1]: 4 to 12 µM | MIC [2]: 1.5 µM (≈ 2.11 µg/mL) | MIC [3]: 12 µM (≈ 16.9 µg/mL) | MIC [4]: 97 µM (≈ 136 µg/mL) | MIC [5]: 24 µM (≈ 33.7 µg/mL) | MIC [6]: 3 µM (≈ 4.21 µg/mL) | MIC [7]: 3 µM (≈ 4.21 µg/mL) | Chemokine induction Gro-α ([8]; 20 μg/ml peptide): -17 pg/mL | Chemokine induction Gro-α ([8]; 100 μg/ml peptide): 1 pg/mL | MIC (ESBL E. cloacae): 6 µM (≈ 8.43 µg/mL) | Chemokine induction MCP-1 ([9]; 20 μg/ml peptide): -6 pg/mL | Chemokine induction MCP-1 ([9]; 100 μg/ml peptide): 99 pg/mL | MIC [10]: 3 µM (≈ 4.21 µg/mL) | MIC [11]: 24 µM (≈ 33.7 µg/mL) | Chemokine induction MCP-3 ([12]; 20 μg/ml peptide): 0 pg/mL | Chemokine induction MCP-3 ([12]; 100 μg/ml peptide): 2 pg/mL

CC[C@H](C)[C@H](NC(=O)[C@H](CCCCN)NC(=O)[C@H](Cc1c[nH]c2ccccc12)NC(=O)[C@H](Cc1c[nH]c2ccccc12)NC(=O)[C@H](CCCNC(=N)N)NC(=O)[C@@H](N)Cc1c[nH]c2ccccc12)C(=O)N[C@@H](Cc1c[nH]c2ccccc12)C(=O)N[C@@H](CCCCN)C(=O)N[C@@H](CCCNC(=N)N)C(N)=O [HHC20, WRWWKIWKR] (H-WRWWKIWKR-NH2; N-terminus assumed)
MIC [2]: 0.8 µM (≈ 1.16 µg/mL) | MIC [3]: 6 µM (≈ 8.66 µg/mL) | MIC [4]: 24 µM (≈ 34.7 µg/mL) | MIC [5]: 24 µM (≈ 34.7 µg/mL) | MIC [6]: 1.5 µM (≈ 2.17 µg/mL) | MIC [7]: 3 µM (≈ 4.33 µg/mL) | Chemokine induction Gro-α ([8]; 20 μg/ml peptide): 169 pg/mL | Chemokine induction Gro-α ([8]; 100 μg/ml peptide): 33 pg/mL | MIC (ESBL E. cloacae): 12 µM (≈ 17.3 µg/mL) | Chemokine induction MCP-1 ([9]; 20 μg/ml peptide): 290 pg/mL | Chemokine induction MCP-1 ([9]; 100 μg/ml peptide): 974 pg/mL | MIC [10]: 3 µM (≈ 4.33 µg/mL) | MIC [11]: 24 µM (≈ 34.7 µg/mL) | Chemokine induction MCP-3 ([12]; 20 μg/ml peptide): 8 pg/mL | Chemokine induction MCP-3 ([12]; 100 μg/ml peptide): 12 pg/mL

N=C(N)NCCC[C@H](NC(=O)[C@H](Cc1c[nH]c2ccccc12)NC(=O)[C@H](CCCCN)NC(=O)[C@H](CCCCN)NC(=O)[C@H](Cc1c[nH]c2ccccc12)NC(=O)[C@H](Cc1c[nH]c2ccccc12)NC(=O)[C@H](CCCNC(=N)N)NC(=O)[C@H](CCCCN)NC(=O)[C@@H](N)Cc1c[nH]c2ccccc12)C(N)=O [HHC45, WKRWWKKWR] (H-WKRWWKKWR-NH2; N-terminus assumed)
MIC [2]: 1.4 µM (≈ 2.04 µg/mL) | MIC [3]: 3 µM (≈ 4.38 µg/mL) | MIC [4]: 46 µM (≈ 67.1 µg/mL) | MIC [5]: 46 µM (≈ 67.1 µg/mL) | MIC [6]: 6 µM (≈ 8.75 µg/mL) | MIC [7]: 6 µM (≈ 8.75 µg/mL) | Chemokine induction Gro-α ([8]; 20 μg/ml peptide): -15 pg/mL | Chemokine induction Gro-α ([8]; 100 μg/ml peptide): -32 pg/mL | MIC (ESBL E. cloacae): 93 µM (≈ 136 µg/mL) | Chemokine induction MCP-1 ([9]; 20 μg/ml peptide): -9 pg/mL | Chemokine induction MCP-1 ([9]; 100 μg/ml peptide): 161 pg/mL | MIC [10]: 68 µM (≈ 99.2 µg/mL) | MIC [11]: 93 µM (≈ 136 µg/mL) | Chemokine induction MCP-3 ([12]; 20 μg/ml peptide): -2 pg/mL | Chemokine induction MCP-3 ([12]; 100 μg/ml peptide): -2 pg/mL
